Publication PMC7576608, “Mechanisms of telomerase inhibition by oxidized and therapeutic dNTPs” (Nature Communications, 2020)
Several values for one entry are separate records, joined by “and”; a condition that tells them apart may be missing. Identical values can stand only once.

Biological target: telomerase (Homo sapiens, UniProt O14746)
Assay: Direct telomerase assay in the absence or presence of POT1-TPP1 (processivity R1/2)
Type: biochemical
Set-up: made in house; POT1: baculovirus-infected Sf9; TPP1-N: E. coli BL21(DE3) pLysS
Conditions: analog substituted for its natural dNTP, other dNTPs at cellular concentration
Source text: Next we tested whether the telomerase processivity factor POT1–TPP1 modulates modified dNTP inhibition of telomerase. POT1 binds to the telomeric ssDNA overhang, requiring the minimum sequence of 5′-[…]-3′[38]. Inclusion of POT1-binding partner TPP1, increases the binding affinity for telomeric DNA ten-fold compared to POT1 alone. POT1–TPP1 recruits telomerase to telomeres in vivo[39], and greatly increases telomerase repeat processivity. Therefore, we reasoned that POT1–TPP1 may overcome inhibition by the modified dNTPs and enhance telomerase processivity. We conducted telomerase extension reactions with radiolabeled primer in the presence of POT1–TPP1, and used a primer with a single mutation ([…]; underlined G to C mutation)[40] to ensure POT1–TPP1 is positioned at the 5′ portion of the primer (Fig. 5). This provides a homogenous substrate for telomerase extension.
For these reactions, we replaced the natural dNTP with the modified dNTP analog, while the other dNTPs remained at cellular relevant concentrations.
Direct telomerase assays were conducted in the absence or presence of 500 nM POT1 and 500 nM TPP1, as indicated, and 5 nM ^32P-end labeled primer ([…]) designed to position POT1 at the 10 nt primer 5′ end. Reactions contained cellular-concentration dNTPs (lanes 1 and 2), except when the natural dNTP was substituted with the oxidized dNTP a or therapeutic dNTP b analog (lanes 3–8), as indicated. […] Letters on the right indicate template base; P indicates unextended 18-mer primer. c Processivity was calculated on the basis of total products normalized to loading control. Images are representative of, and data are shown as mean ± s.d. from 3 to 5 independent experiments. Source data are provided as a Source Data file.
The reactions were started by the addition of 3 μl of immunopurified telomerase eluent, incubated at 37 °C for 1 h, then terminated with 2 μl of […] and heat inactivated at 65 °C for 20 min. An equal volume of loading buffer (94% formamide, 0.1× TBE, 0.1% bromophenol blue, 0.1% xylene cyanol) was added to the reaction eluent. The samples were heat denatured for 10 min at 100 °C and loaded onto a 14% denaturing acrylamide gel (7 M urea, 1× TBE) and electrophoresed for 90 min at constant 38 W. Samples were imaged using a Typhoon phosphorimager (GE Healthcare). Percent primer extension was calculated with ImageQuant TL 8.2 by measuring the intensity of each product band and dividing by the total radioactivity in the lane or total products, as indicated in the figure legends.
The processivity was calculated as described[40],[67]. Repeat processivity from the direct telomerase extension assays was calculated as R1/2 (equivalent to the half-time for decay in an exponential time course), which represents the median length of DNA product formed, expressed in terms of number of telomere repeats. First, the total volume counts for each product band extend by one or more telomere repeats were obtained using Image Quant TL. The volume counts were then normalized by dividing by the number of radiolabeled guanosines incorporated into the extended products based on the number of repeats added, termed corrected volume (corr vol). The “percent left behind” (%LB) was calculated for each product band by summing the counts for that product band and for every product band below (shorter products), divided by the total counts for the lane, and then multiplied by 100. The natural log of (100−%LB) was calculated and then plotted vs. repeat number for each product length. A linear regression line was fit to the data to determine the slope of the line.

[1] = 500 nM POT1 and 500 nM TPP1, Mean
[2] = 500 nM POT1 and 500 nM TPP1, n1-n3

| SMILES | Processivity R 1/2 [1] | Processivity R 1/2 (500 nM POT1 and 500 nM TPP1, n1-n3, listed as 8dA) | Processivity R 1/2 (Control (no POT1-TPP1), Mean) | Processivity R 1/2 (Control (no POT1-TPP1), n1-n3) | Processivity R 1/2 [2] | Processivity R 1/2 (500 nM POT1 and 500 nM TPP1, Mean, listed as 2dA) | Processivity R 1/2 (500 nM POT1 and 500 nM TPP1, n1-n3, listed as 2dA) | Processivity R 1/2 (Control (no POT1-TPP1), Mean, listed as 2dA) | Processivity R 1/2 (Control (no POT1-TPP1), n1-n3, listed as 2dA) |
| --- | --- | --- | --- | --- | --- | --- | --- | --- | --- |
| Nc1ncnc2c1[nH]c(=O)n2C1CC(O)C(COP(=O)(O)OP(=O)(O)OP(=O)(O)O)O1 (centres unmarked) [8-oxo-dATP] | 1.31 | 1.15 and 1.30 and 1.47 | 0.00 | 0.00 |  |  |  |  |  |
| O=c1[nH]cnc2c1ncn2C1CCC(COP(=O)(O)OP(=O)(O)OP(=O)(O)O)O1 (centres unmarked) [ddITP] | 0.00 |  | 0.00 | 0.00 | 0.00 |  |  |  |  |
| Cc1cn([C@H]2C[C@H](N=[N+]=[N-])[C@@H](CO[P@](=O)(O)O[P@](=O)(O)OP(=O)(O)O)O2)c(=O)[nH]c1=O [AZT-TP] | 0.00 |  | 0.00 | 0.00 | 0.00 |  |  |  |  |
| Nc1nc2c(ncn2C2CC(O)C(COP(=O)(O)OP(=O)(O)OP(=O)(O)O)O2)c(=S)[nH]1 (centres unmarked) [6-thio-dGTP] | 0.00 |  | 0.00 | 0.00 | 0.00 |  |  |  |  |
| Nc1nc(O)nc2c1ncn2C1CC(O)C(COP(=O)(O)OP(=O)(O)OP(=O)(O)O)O1 (centres unmarked) [2-OH-dATP] | 2.3 |  | 0.5 |  |  | 2.27 | 2.20 and 2.10 and 2.50 | 0.49 | 0.49 and 0.48 and 0.51 |
| Nc1nc2c([nH]c(=O)n2C2CC(O)C(COP(=O)(O)OP(=O)(O)OP(=O)(O)O)O2)c(=O)[nH]1 (centres unmarked) [8-oxo-dGTP] | 0.00 |  | 0.00 | 0.00 | 0.00 |  |  |  |  |
